The source made the active and inactive calls. The rule behind the calls is not given here.
Test system: rodent lifetime carcinogenesis bioassay, tumor incidence TD50
Assay: carcinogenic potency in animals, long-term in vivo studies, CPDB compilation (AID 1745844)

Structure (SMILES): C1COCCO1
- TD50 (mouse, strain B6C3F1, females, in drinking water, site: any site (literature study), lesion: several types, types named in the paper, dosed 90 weeks, study length 90 weeks): 847 mg/kg/day
- TD50 (mouse, strain B6C3F1, females, in drinking water, site: liver, lesion: hepatocellular adenoma + hepatocellular carcinoma + neoplastic nodule, dosed 90 weeks, study length 90 weeks): 594 mg/kg/day
- TD50 (mouse, strain B6C3F1, females, in drinking water, site: liver, lesion: hepatocellular adenoma + hepatocellular carcinoma, dosed 90 weeks, study length 90 weeks): 594 mg/kg/day
- TD50 (mouse, strain B6C3F1, females, in drinking water, site: liver, lesion: hepatocellular carcinoma, dosed 90 weeks, study length 90 weeks): 938 mg/kg/day
- TD50 (mouse, strain B6C3F1, females, in drinking water, site: lung, lesion: alveolar/bronchiolar adenoma + alveolar/bronchiolar carcinoma, dosed 90 weeks, study length 90 weeks): 71900 mg/kg/day
- TD50 (mouse, strain B6C3F1, males, in drinking water, site: all sites, lesion: hemangioma + hemangiosarcoma, dosed 90 weeks, study length 91 weeks): 3150 mg/kg/day
- TD50 (mouse, strain B6C3F1, males, in drinking water, site: all sites, lesion: lymphoma, dosed 90 weeks, study length 91 weeks): 3930 mg/kg/day
- TD50 (mouse, strain B6C3F1, males, in drinking water, site: any site (literature study), lesion: several types, types named in the paper, dosed 90 weeks, study length 91 weeks): 1880 mg/kg/day
- TD50 (mouse, strain B6C3F1, males, in drinking water, site: liver, lesion: hepatocellular adenoma + hepatocellular carcinoma + neoplastic nodule, dosed 90 weeks, study length 91 weeks): 1460 mg/kg/day
- TD50 (mouse, strain B6C3F1, males, in drinking water, site: liver, lesion: hepatocellular adenoma + hepatocellular carcinoma, dosed 90 weeks, study length 91 weeks): 1460 mg/kg/day
- TD50 (mouse, strain B6C3F1, males, in drinking water, site: liver, lesion: hepatocellular carcinoma, dosed 90 weeks, study length 91 weeks): 1420 mg/kg/day
- TD50 (mouse, strain BDF1, females, in drinking water, site: liver, lesion: hepatocellular adenoma, dosed 104 weeks, study length 105 weeks): 83.1 mg/kg/day
- TD50 (mouse, strain BDF1, females, in drinking water, site: liver, lesion: hepatocellular carcinoma, dosed 104 weeks, study length 105 weeks): 404 mg/kg/day
- TD50 (mouse, strain BDF1, females, in drinking water, site: liver, lesion: several types, types named in the paper, dosed 104 weeks, study length 105 weeks): 65.5 mg/kg/day
- TD50 (mouse, strain BDF1, females, in drinking water, site: nasal cavity, lesion: adenocarcinoma, dosed 104 weeks, study length 105 weeks): 72100 mg/kg/day
- TD50 (mouse, strain BDF1, males, in drinking water, site: liver, lesion: hepatocellular adenoma, dosed 104 weeks, study length 105 weeks): 519 mg/kg/day
- TD50 (mouse, strain BDF1, males, in drinking water, site: liver, lesion: hepatocellular carcinoma, dosed 104 weeks, study length 105 weeks): 1040 mg/kg/day
- TD50 (mouse, strain BDF1, males, in drinking water, site: liver, lesion: several types, types named in the paper, dosed 104 weeks, study length 105 weeks): 982 mg/kg/day
- TD50 (mouse, strain BDF1, males, in drinking water, site: nasal cavity, lesion: esthesioneuroepithelioma, dosed 104 weeks, study length 105 weeks): 60100 mg/kg/day
- TD50 (rat, strain Charles River CD (Sprague-Dawley), males, in drinking water, site: nasal cavity, lesion: squamous-cell carcinoma, dosed 56 weeks, study length 69 weeks): 2950 mg/kg/day
- TD50 (rat, strain F344/DuCrj, females, in drinking water, site: liver, lesion: hepatocellular adenoma, dosed 104 weeks, study length 105 weeks): 182 mg/kg/day
- TD50 (rat, strain F344/DuCrj, females, in drinking water, site: liver, lesion: hepatocellular carcinoma, dosed 104 weeks, study length 105 weeks): 1120 mg/kg/day
- TD50 (rat, strain F344/DuCrj, females, in drinking water, site: liver, lesion: several types, types named in the paper, dosed 104 weeks, study length 105 weeks): 167 mg/kg/day
- TD50 (rat, strain F344/DuCrj, females, in drinking water, site: mammary gland, lesion: adenoma, dosed 104 weeks, study length 105 weeks): 772 mg/kg/day
- TD50 (rat, strain F344/DuCrj, females, in drinking water, site: nasal cavity, lesion: esthesioneuroepithelioma, dosed 104 weeks, study length 105 weeks): 12200 mg/kg/day
- TD50 (rat, strain F344/DuCrj, females, in drinking water, site: nasal cavity, lesion: malignant tumor, dosed 104 weeks, study length 105 weeks): 1430 mg/kg/day
- TD50 (rat, strain F344/DuCrj, females, in drinking water, site: nasal cavity, lesion: squamous-cell carcinoma, dosed 104 weeks, study length 105 weeks): 1650 mg/kg/day
- TD50 (rat, strain F344/DuCrj, males, in drinking water, site: liver, lesion: hepatocellular adenoma, dosed 104 weeks, study length 105 weeks): 279 mg/kg/day
- TD50 (rat, strain F344/DuCrj, males, in drinking water, site: liver, lesion: hepatocellular carcinoma, dosed 104 weeks, study length 105 weeks): 676 mg/kg/day
- TD50 (rat, strain F344/DuCrj, males, in drinking water, site: liver, lesion: several types, types named in the paper, dosed 104 weeks, study length 105 weeks): 189 mg/kg/day
- TD50 (rat, strain F344/DuCrj, males, in drinking water, site: mammary gland, lesion: fibroadenoma, dosed 104 weeks, study length 105 weeks): 3070 mg/kg/day
- TD50 (rat, strain F344/DuCrj, males, in drinking water, site: nasal cavity, lesion: esthesioneuroepithelioma, dosed 104 weeks, study length 105 weeks): 10600 mg/kg/day
- TD50 (rat, strain F344/DuCrj, males, in drinking water, site: nasal cavity, lesion: malignant tumor, dosed 104 weeks, study length 105 weeks): 1440 mg/kg/day
- TD50 (rat, strain F344/DuCrj, males, in drinking water, site: nasal cavity, lesion: rhabdomyosarcoma, dosed 104 weeks, study length 105 weeks): 10600 mg/kg/day
- TD50 (rat, strain F344/DuCrj, males, in drinking water, site: nasal cavity, lesion: sarcoma, NOS, dosed 104 weeks, study length 105 weeks): 5270 mg/kg/day
- TD50 (rat, strain F344/DuCrj, males, in drinking water, site: nasal cavity, lesion: squamous-cell carcinoma, dosed 104 weeks, study length 105 weeks): 3490 mg/kg/day
- TD50 (rat, strain F344/DuCrj, males, in drinking water, site: peritoneum, lesion: mesothelioma, dosed 104 weeks, study length 105 weeks): 246 mg/kg/day
- TD50 (rat, strain F344/DuCrj, males, in drinking water, site: subcutaneous tissue, lesion: fibroma, dosed 104 weeks, study length 105 weeks): 922 mg/kg/day
- TD50 (rat, strain Osborne-Mendel, females, in drinking water, site: any site (literature study), lesion: several types, types named in the paper, dosed 110 weeks, study length 111 weeks): 40.5 mg/kg/day
- TD50 (rat, strain Osborne-Mendel, females, in drinking water, site: liver + nasal turbinate, lesion: hepatocellular adenoma + squamous-cell carcinoma, dosed 110 weeks, study length 111 weeks): 126 mg/kg/day
- TD50 (rat, strain Osborne-Mendel, females, in drinking water, site: liver, lesion: hepatocellular adenoma + hepatocellular carcinoma + neoplastic nodule, dosed 110 weeks, study length 111 weeks): 124 mg/kg/day
- TD50 (rat, strain Osborne-Mendel, females, in drinking water, site: liver, lesion: hepatocellular adenoma, dosed 110 weeks, study length 111 weeks): 160 mg/kg/day
- TD50 (rat, strain Osborne-Mendel, females, in drinking water, site: nasal turbinate, lesion: squamous-cell carcinoma, dosed 110 weeks, study length 111 weeks): 476 mg/kg/day
- TD50 (rat, strain Osborne-Mendel, males, in drinking water, site: any site (literature study), lesion: several types, types named in the paper, dosed 110 weeks, study length 110 weeks): 114 mg/kg/day
- TD50 (rat, strain Osborne-Mendel, males, in drinking water, site: liver, lesion: hepatocellular adenoma + hepatocellular carcinoma + neoplastic nodule, dosed 110 weeks, study length 110 weeks): 796 mg/kg/day
- TD50 (rat, strain Osborne-Mendel, males, in drinking water, site: nasal turbinate, lesion: squamous-cell carcinoma, dosed 110 weeks, study length 110 weeks): 168 mg/kg/day
- TD50 (rat, strain Sherman, both sexes, in drinking water, site: liver, lesion: hepatocellular carcinoma, dosed 104 weeks, study length 104 weeks): 2500 mg/kg/day
- TD50 (rat, strain Sherman, both sexes, in drinking water, site: liver, lesion: several types, types named in the paper, dosed 104 weeks, study length 104 weeks): 2120 mg/kg/day
- TD50 (rat, strain Sherman, both sexes, in drinking water, site: nasal turbinate, lesion: squamous-cell carcinoma, dosed 104 weeks, study length 104 weeks): 15900 mg/kg/day
- TD50 (rat, strain Wistar, both sexes, in drinking water, site: any site (literature study), lesion: several types, types named in the paper, dosed 63 weeks, study length 64 weeks): 690 mg/kg/day
- TD50 (rat, strain Wistar, both sexes, in drinking water, site: liver, lesion: hepatoma, dosed 63 weeks, study length 64 weeks): 515 mg/kg/day

Structure (SMILES): CC(=O)Nc1ccc(C(=O)CCl)cc1
- TD50 (mouse, strain B6C3F1, females, in feed, site: any site (literature study), lesion: several types, types named in the paper, dosed 90 weeks, study length 105 weeks): 3500 mg/kg/day
- TD50 (mouse, strain B6C3F1, females, in feed, site: liver, lesion: hepatocellular adenoma + hepatocellular carcinoma + neoplastic nodule, dosed 90 weeks, study length 105 weeks): 4700 mg/kg/day
- TD50 (mouse, strain B6C3F1, females, in feed, site: liver, lesion: hepatocellular adenoma, dosed 90 weeks, study length 105 weeks): 4700 mg/kg/day
- TD50 (mouse, strain B6C3F1, females, in feed, site: lung, lesion: alveolar/bronchiolar adenoma + alveolar/bronchiolar carcinoma, dosed 90 weeks, study length 105 weeks): 3020 mg/kg/day
- carcinogen call (mouse, strain B6C3F1, males, in feed, site: any site (literature study), lesion: several types, types named in the paper, dosed 90 weeks, study length 105 weeks): negative (inactive)
- carcinogen call (rat, strain Fischer 344, females, in feed, site: any site (literature study), lesion: several types, types named in the paper, dosed 87 weeks, study length 103 weeks): negative (inactive)
- TD50 (rat, strain Fischer 344, males, in feed, site: any site (literature study), lesion: several types, types named in the paper, dosed 87 weeks, study length 103 weeks): 325 mg/kg/day (inactive)
- TD50 (rat, strain Fischer 344, males, in feed, site: liver, lesion: hepatocellular adenoma + hepatocellular carcinoma + neoplastic nodule, dosed 87 weeks, study length 103 weeks): 2470 mg/kg/day

— PubChem BioAssay AID1745844 (Carcinogenic Potency Database (CPDB), 2022)
